Results as given in patent publication US5585355A, “Method for increasing blood-ocular barrier permeability with permeabilizer peptides” (Alkermes, Inc., priority 1994, dated 1996).
“And” between values parts separate entries of the source, which are not always exact repeats. Equal values may be shown once. Read-outs that look alike come from different tables or passages of the source.

Columns and labels:
[1] = test system: blood-ocular barrier; settings: for Uptake of [14C]-sucrose, % of plasma concentration (W/W) / KIN, unidirectional transport rate of [14C]-sucrose: A-7 1 μg/kg; for KIN, unidirectional transport rate of [14C]-sucrose: 3.0 min to 4.5 min
Method: Adult Hartley guinea pigs of either sex (250-300 g) were used.
Animals were anaesthetized with 6 mg/kg xylazine (Rompun®, Mobay Corp., Shawnee, Kans.) and 30 mg/kg ketamine (Vetacet®, Abeco Co., Inc., Fort Dodge, Iowa) before surgically exposing the neck vessels. […] The technique is briefly summarized here. A fine polyethylene catheter connected to the extracorporeal perfusion system by silicon tubings was inserted into the right common carotid artery. Immediately after the start of the perfusion, the contralateral carotid artery was ligated and both jugular veins cut to allow free drainage of the perfusate.
All tubing was low gas permeable silicon, and all metal was medical grade stainless steel. The temperature and perfusion pressure were continuously recorded, and the acid-base status frequently monitored. Perfusion pressure was kept slightly above the animal's blood pressure to eliminate any possible ingress from the systemic circulation.
(§1) Isotopically labeled [^14 C]-sucrose was introduced into the perfusion circuit after the 5 minute infusion at a rate of 0.4 to 0.6 μCi/ml/min, over periods ranging from 1.5 min to 4.5 min. In all experiments, the perfusion was terminated by severing the right common carotid artery and decapitating the animal.
(§2) The eyes were enucleated and the lenses rapidly excised via a lateral approach 1.5 mm posteriorly to the limbus. The lenses were blotted on filter paper to remove any adhering aqueous humor and to avoid epithelial contamination by aqueous radioactivity. Corneas were dissected circumferentially about 0.5 mm anteriorly to the limbus. After removal of the anterior segment of the eye, the vitreous body was dissected from the retinal surface. Retinas were scooped from the lying epithelium. All tissues were blotted after dissection to minimize contamination by adjacent tissue layers and/or fluids. Samples of plasma, aqueous humor, lens, cornea, retina and posterior vitreous were treated with 2 ml Beckman Tissue Solubilizer (BTS)-450, and 16 ml of scintillant (Beckman Ready Organic, Fullerton, Calif.). Radioactivity was determined in a Beckman LS-7500 liquid scintillation spectrometer.
(When data are expressed as percentages the ratios were multiplied by 100.) The following equations were used to calculate ratios:
Caqueous or Cvitreous /Cplasma =(DPM/ml aqueous or vitreous)/(DPM/ml plasma)
Clens or Ccornea or Cretina /Cplasma =(DPM/g lens or cornea or retina)/(DPM/ml plasma)
Multiple-time uptake series were performed, and the unidirectional transport rate constant, KIN, and initial volume of tracer distribution, VI, were calculated using the following equations where T is the perfusion time:
KIN (plasma-aqueous or vitreous)=[Caqueous or vitreous /Cplasma ]T+VI (aqueous or vitreous/plasma)
KIN (plasma-lens, cornea or retina)=[Clens, cornea or retina /Cplasma ]T+VI (lens cornea or retina/plasma)
The respective KIN and VI values were graphically estimated by linear regression analysis as a slope and ordinate intercept of the line corresponding to the best linear fit to experimental data points for the time period when there was no significant departure from linearity in studied compartments.
Results are presented as means±SE.

[2] = Effect of A-7 on physiological functions; format: in vivo, guinea pig; settings: for Blood Pressure / Body Weight / Heart Rate / Respirations/Minute: within first minute of infusion
[3] = test system: blood-ocular barrier; assay: Uptake of [3H]-ganciclovir into the eye after arterial infusion of A-7 (VEP); format: in vivo, guinea pig; settings: for KIN of [3H]-ganciclovir: 0 min to 3.0 min; for KIN for ganciclovir, times higher in the presence of A-7: 0 to 3.0 min
Method: Animals were anaesthetized with 6 mg/kg xylazine (Rompun®, Mobay Corp., Shawnee, Kans.) and 30 mg/kg ketamine (Vetacet®, Abeco Co., Inc., Fort Dodge, Iowa) before surgically exposing the neck vessels. The vascular eye perfusion (VEP) technique used here and previously described by Zlokovic et al. (1992, Exp. Eye Res., 54:471) allows for the study of uptake of agents in to the eye while protecting the eye from systemic metabolic changes. The technique is briefly summarized here. A fine polyethylene catheter connected to the extracorporeal perfusion system by silicon tubings was inserted into the right common carotid artery. Immediately after the start of the perfusion, the contralateral carotid artery was ligated and both jugular veins cut to allow free drainage of the perfusate.
The perfusion medium consisted of 20% washed sheep red blood cells (RBC) suspended in mock plasma of the following composition (in mM): 123 NaCl, 4 KCl, 2.5 CaCl2.H2 O, 25 NaHCO3, 1.2 KH2 PO4, 1.8 MgCl2.6H2 O and 5.5 D-glucose. The perfusion medium was gassed with 96% O2 and 4% CO2 and warmed to 37.6° C., and was pumped from a reservoir through a water bath using a Rainin Rabbit peristaltic pump (Rainin Instruments, Woburn, Mass.). All tubing was low gas permeable silicon, and all metal was medical grade stainless steel. The temperature and perfusion pressure were continuously recorded, and the acid-base status frequently monitored. Perfusion pressure was kept slightly above the animal's blood pressure to eliminate any possible ingress from the systemic circulation.
as §1
as §2, with “As large a sample as possible (30-40 μl) of the aqueous humor was removed with a 0.5 cc U-100 insulin syringe using 28 G 1/2 microfine IV needle (no dead-space), immediately after the perfusion was terminated. The eyes” for “The eyes”
The methodology of these experiments is similar to that of Example 1 described above. […] The ocular compartments were dissected as described above and analyzed for uptake of [^3 H]-ganciclovir.

[4] = test system: blood-ocular barrier; assay: Uptake of [3H]-ganciclovir into retina and lens following intravenous administration of A-7; format: in vivo, guinea pig; settings: for Uptake of [3H]-ganciclovir, % of plasma concentration (W/W): five minute intravenous administration of A-7
Method: The methodology of these experiments is similar to that of Example 1 except for the following modifications. In this case, [^3 H]-ganciclovir (22 Ci mmol^-1, Moravek Brea, Calif.) was injected into the right jugular vein instead of the common carotid artery. […] The lenses and retinas were removed as described in Example 1.

Arginine-Proline-Hydroxyproline-Glycine-Thienylalanine-Serine-Proline-4-Me-Tyrosine-(CH2 NH)Arginine [A-7]
Uptake of [14C]-sucrose, % of plasma concentration (W/W) ([1]; aqueous, 1.5 min after sucrose added): 0.19 ± 0.01 % of Plasma Concentration (W/W | Uptake of [14C]-sucrose, % of plasma concentration (W/W) ([1]; aqueous, 3.0 min after sucrose added): 0.41 ± 0.18 % of Plasma Concentration (W/W | KIN, unidirectional transport rate of [14C]-sucrose ([1]; aqueous): 9.13 ± 3.66 µL/min/g | Uptake of [14C]-sucrose, % of plasma concentration (W/W) ([1]; aqueous, 4.5 min after sucrose added): 1.79 ± 0.68 % of Plasma Concentration (W/W | Uptake of [14C]-sucrose, % of plasma concentration (W/W) ([1]; cornea, 1.5 min after sucrose added): 0.48 ± 0.19 % of Plasma Concentration (W/W | Uptake of [14C]-sucrose, % of plasma concentration (W/W) ([1]; cornea, 3.0 min after sucrose added): 1.01 ± 0.23 % of Plasma Concentration (W/W | KIN, unidirectional transport rate of [14C]-sucrose ([1]; cornea): 16.20 ± 3.42 µL/min/g | Uptake of [14C]-sucrose, % of plasma concentration (W/W) ([1]; cornea, 4.5 min after sucrose added, an outlier of 0.5% not included): 3.44 ± 1.40 % of Plasma Concentration (W/W | KIN for sucrose, times higher in the presence of A-7 ([1]; lens): 6.5 times | Uptake of [14C]-sucrose, % of plasma concentration (W/W) ([1]; lens, 1.5 min after sucrose added): 0.03 ± 0.02 % of Plasma Concentration (W/W | Uptake of [14C]-sucrose, % of plasma concentration (W/W) ([1]; lens, 3.0 min after sucrose added): 0.05 ± 0.01 % of Plasma Concentration (W/W | KIN, unidirectional transport rate of [14C]-sucrose ([1]; lens): 0.130 ± 0.015 µL/min/g | Uptake of [14C]-sucrose, % of plasma concentration (W/W) ([1]; lens, 4.5 min after sucrose added): 0.07 ± 0.01 % of Plasma Concentration (W/W | KIN for sucrose, times higher in the presence of A-7 ([1]; retina): 6.7 times | Uptake of [14C]-sucrose, % of plasma concentration (W/W) ([1]; retina, 1.5 min after sucrose added, 5 min arterial infusion): 0.95 ± 0.30 % of Plasma Concentration (W/W | Uptake of [14C]-sucrose, % of plasma concentration (W/W) ([1]; retina, 3.0 min after sucrose added, 5 min arterial infusion): 1.76 ± 0.50 % of Plasma Concentration (W/W | KIN, unidirectional transport rate of [14C]-sucrose ([1]; retina): 4.27 ± 0.9 µL/min/g | Uptake of [14C]-sucrose, % of plasma concentration (W/W) ([1]; retina, 4.5 min after sucrose added, 5 min arterial infusion): 2.26 ± 0.56 % of Plasma Concentration (W/W | Uptake of [14C]-sucrose, % of plasma concentration (W/W) ([1]; vitreous, 1.5 min after sucrose added): 0.03 ± 0.018 % of Plasma Concentration (W/W | Uptake of [14C]-sucrose, % of plasma concentration (W/W) ([1]; vitreous, 3.0 min after sucrose added): 0.05 ± 0.01 % of Plasma Concentration (W/W | KIN, unidirectional transport rate of [14C]-sucrose ([1]; vitreous): 0.84 µL/min/g and 0.84 ± 0.25 µL/min/g | Uptake of [14C]-sucrose, % of plasma concentration (W/W) ([1]; vitreous, 4.5 min after sucrose added): 0.18 ± 0.05 % of Plasma Concentration (W/W | Effect on sucrose uptake by vitreous ([1]; vitreous, time points earlier than 4.5 minutes of VEP): did not affect | Changes in body weight, respiration rate, blood pressure and heart rate ([2]; A-7 1 μg/kg): no significant changes | Blood Pressure ([2]; A-7 1 μg/kg body weight): 75 mm Hg | Body Weight ([2]; A-7 1 μg/kg body weight): 283 g | Heart Rate ([2]; A-7 1 μg/kg body weight): 170 Beats Per Minute | Respirations/Minute ([2]; A-7 1 μg/kg body weight): 26 | Blood Pressure ([2]; A-7 3 μg/kg body weight): 90 mm Hg | Body Weight ([2]; A-7 3 μg/kg body weight): 283 g | Heart Rate ([2]; A-7 3 μg/kg body weight): 200 Beats Per Minute | Respirations/Minute ([2]; A-7 3 μg/kg body weight): 44 | Blood Pressure ([2]; A-7 10 μg/kg body weight): 100 mm Hg | Body Weight ([2]; A-7 10 μg/kg body weight): 285 g | Heart Rate ([2]; A-7 10 μg/kg body weight): Unmeasur- | Respirations/Minute ([2]; A-7 10 μg/kg body weight): 58 | Uptake of [3H]-ganciclovir, % of plasma concentration (W/W) ([3]; aqueous, 1.5 min, arterial infusion of A-7): 0.46 ± 0.1 % of Plasma Concentration (W/W | Uptake of [3H]-ganciclovir, % of plasma concentration (W/W) ([3]; aqueous, 3.0 min, arterial infusion of A-7): 0.51 ± 0.21 % of Plasma Concentration (W/W | Uptake of [3H]-ganciclovir, % of plasma concentration (W/W) ([3]; aqueous, 4.5 min, arterial infusion of A-7): 0.55 ± 1.0 % of Plasma Concentration (W/W | Ganciclovir uptake into other compartments ([3]; compartments other than retina and lens, within the measured time periods): did not substantially increase | KIN of [3H]-ganciclovir ([3]; cornea): 1.21 µL/min/g | Uptake of [3H]-ganciclovir, % of plasma concentration (W/W) ([3]; cornea, 1.5 min, arterial infusion of A-7): 1.16 ± 0.53 % of Plasma Concentration (W/W | Uptake of [3H]-ganciclovir, % of plasma concentration (W/W) ([3]; cornea, 3.0 min, arterial infusion of A-7): 2.98 ± 0.33 % of Plasma Concentration (W/W | Uptake of [3H]-ganciclovir, % of plasma concentration (W/W) ([3]; cornea, 4.5 min, arterial infusion of A-7): 2.92 ± 0.46 % of Plasma Concentration (W/W | KIN of [3H]-ganciclovir ([3]; lens): 40.3 ± 5.6 µL/min/g | KIN for ganciclovir, times higher in the presence of A-7 ([3]; lens): 1.3 times | Uptake of [3H]-ganciclovir, % of plasma concentration (W/W) ([3]; lens, 1.5 min, arterial infusion of A-7): 7.89 ± 0.52 % of Plasma Concentration (W/W | Uptake of [3H]-ganciclovir, % of plasma concentration (W/W) ([3]; lens, 3.0 min, arterial infusion of A-7): 11.86 ± 1.42 % of Plasma Concentration (W/W | Uptake of [3H]-ganciclovir, % of plasma concentration (W/W) ([3]; lens, 4.5 min, arterial infusion of A-7): 13.37 ± 1.06 % of Plasma Concentration (W/W | Increase in uptake of ganciclovir into the lens ([3]; lens, from 1.5 to 4.5 minutes of VEP): 1.5-2 fold | KIN of [3H]-ganciclovir ([3]; retina): 21.2 ± 1.5 µL/min/g | KIN for ganciclovir, times higher in the presence of A-7 ([3]; retina): 2.6 times | Uptake of [3H]-ganciclovir, % of plasma concentration (W/W) ([3]; retina, 1.5 min, after 5 min arterial infusion of A-7): 3.96 ± 0.68 % of Plasma Concentration (W/W | Uptake of [3H]-ganciclovir, % of plasma concentration (W/W) ([3]; retina, 3.0 min, after 5 min arterial infusion of A-7): 6.56 ± 0.79 % of Plasma Concentration (W/W | Uptake of [3H]-ganciclovir, % of plasma concentration (W/W) ([3]; retina, 4.5 min, after 5 min arterial infusion of A-7): 7.42 ± 1.14 % of Plasma Concentration (W/W | Increase of retinal uptake of ganciclovir compared to vehicle control ([3]; retina, from 1.5 to 4.5 minutes of VEP): two-fold | KIN of [3H]-ganciclovir ([3]; vitreous): 0.47 µL/min/g | Uptake of [3H]-ganciclovir, % of plasma concentration (W/W) ([3]; vitreous, 1.5 min, arterial infusion of A-7): 0.02 ± 0.00 % of Plasma Concentration (W/W | Uptake of [3H]-ganciclovir, % of plasma concentration (W/W) ([3]; vitreous, 3.0 min, arterial infusion of A-7): 0.04 ± 0.03 % of Plasma Concentration (W/W | Uptake of [3H]-ganciclovir, % of plasma concentration (W/W) ([3]; vitreous, 4.5 min, arterial infusion of A-7): 0.11 ± 0.04 % of Plasma Concentration (W/W | Uptake of [3H]-ganciclovir, % of plasma concentration (W/W) ([4]; lens, 1.5 min): 5.46 ± 1.08 % of Plasma Concentration (W/W | Uptake of [3H]-ganciclovir, % of plasma concentration (W/W) ([4]; lens, 4.5 min): 10.01 ± 1.37 % of Plasma Concentration (W/W | Uptake of [3H]-ganciclovir, % of plasma concentration (W/W) ([4]; retina, 1.5 min): 3.94 ± 0.36 % of Plasma Concentration (W/W | Uptake of [3H]-ganciclovir, % of plasma concentration (W/W) ([4]; retina, 4.5 min): 8.45 ± 1.00 % of Plasma Concentration (W/W | Increase of retinal uptake of [3H]-ganciclovir above vehicle treated controls ([4]; retina, intravenous A-7, p=0.001): more than 2 fold
